According to patent publication US20080003438A1, “Heterocyclic siloxanes for use in biocidal coatings and materials” (Auburn University, priority 2002, published 2008):

How the values were obtained:
[1] = Stability test during dry storage of coated cotton samples; assay type: physicochemical
Experimental: A stability test during dry storage was also conducted on cotton samples coated with 3-triethoxysilylpropyl-5,5-dimethylhydantoin. One half of the samples were coated in a bath containing 8% of the 3-triethoxysilylpropyl-5,5-dimethylhydantoin in 50% ethanol in water solution. The other half were treated in the same manner except that KSCN was added to the treatment bath as described above. The chlorination conditions and analytical method of measuring chlorine loadings were the same as discussed above. The samples were stored in plastic bags at ambient temperature; the bags were not air-tight. The average chlorine loading for the samples treated in the presence of KSCN declined from 0.776% to 0.680% over a period of 50 days. For the samples not treated in the presence of KSCN, the decline was from 0.620% to 0.540% over the same 50 day period. It can be concluded that the coated cotton samples were fairly stable to loss of chlorine in dry storage.

[2] = Chlorine loading of coated, chlorinated surfaces by iodometric/thiosulfate titration; assay type: physicochemical; conditions: for average chlorine loading on the swatches: 10% CLOROX 30 min; for chlorine content: chlorinated in household washing machine; for chlorine bound to hard surface: 10% CLOROX
Experimental: Swatches of Style 400 Bleached 100% Cotton Print Cloth (Testfabrics, Inc.) were treated with 3-triethoxysilylpropyl-5,5-dimethylhydantoin, prepared as described in Example 1, in the following manner. A treatment bath was prepared containing 5.0 g of 3-triethoxysilylpropyl-5,5-dimethylhydantoin, 3.0 g of potassium thiocyanate, 50 mL of ethanol, and 50 mL of water. After 1 hour of equilibration of the bath mixture, the cotton swatches were soaked in the bath for 10 min. After partially drying in air at ambient temperature, the swatches were cured for 1 hour at 95° C. The swatches were then soaked in a 0.5% liquid detergent solution for 15 min, rinsed with tap water, and allowed to dry in air at ambient temperature. […] The swatches were stored in a vacuum desiccator until use.
The siloxane polymer described above was coated onto 100% cotton fabric. This was accomplished by soaking swatches of the material for about 2 minutes at ambient temperature in a bath containing 5 g of the polysiloxane, 70 mL of ethanol, and 40 mL of water. The swatches were cured at 130° C. in air for 20 minutes, then soaked in 1.5% liquid detergent for 15 minutes at ambient temperature, and then rinsed thoroughly with water. […] An iodometric/thiosulfate titration indicated a chlorine loading on the cotton material of about 0.42%.
Finally, a wash test was performed on swatches of cotton containing the monomer 3-triethoxysilylpropyl-5,5-dimethylhydantoin coating and the polysiloxane coating, each chlorinated and unchlorinated, for comparison purposes. Two treatment baths were prepared, one containing an 8% solution of 3-triethoxysilylpropyl-5,5-dimethylhydantoin in a 50% solution of ethanol in water, the other containing an 8% solution of siloxane polymer prepared as described above in a 66.7% solution of ethanol in water. Identical cotton swatches were soaked in the two baths for 2.5 minutes at ambient temperature, cured in air at 130° C. for 20 minutes, soaked in 1.5% liquid detergent at ambient temperature for 15 minutes, rinsed thoroughly with water, and dried in air at 50° C. for 30 minutes. Then one-half of the swatches of each type were chlorinated by soaking them in 5% CLOROX at ambient temperature for 45 minutes. These chlorinated samples were rinsed thoroughly with water and dried in air at 50° C. for 30 minutes to remove all occluded free chlorine. Iodometric/thiosulfate titrations were performed on representative samples to determine initial chlorine loadings. The average chlorine loading for the silane monomer-coated samples was 0.61%; for the siloxane polymer-coated samples, the average chlorine loading was 0.40%. Then all types of coated swatches were subjected to laundry washing cycles using AATCC Test Method 61 (Test 2A Procedure). Samples were evaluated after 5, 10, and 50 washing cycles for retention of the coatings. Those samples not chlorinated before washing were chlorinated by the procedure described above in order to assess how much chlorine could be loaded after variable numbers of washing cycles. Those chlorinated before washing were divided into two groups with half being assessed for chlorine loading without rechlorination, the other half being rechlorinated and then assessed for chlorine loading. Three observations are clearly evident from the data in Table 3. First, both the silane and the siloxane coatings are partially lost upon successive washings. Second, prechlorination reduces the rate of loss, probably due to increasing the hydrophobicity of the surface, thus reducing the rate of hydrolysis loss of the siloxane coatings. Third, the siloxane coating, which is not chlorinated to as high a level as the silane one upon initial chlorination, is lost at a slower rate than is the silane coating. For all of the coatings, at least partial biocidal efficacy would be regenerated upon rechlorination after 50 washing cycles. […]

[3] = tested on: spores of Bacillus subtilis; assay: Anti Bacillus spore activity of chlorine charged coated surfaces; assay type: cell-based; conditions: 96 hours
Experimental: Soft and hard surfaces were treated by exposure to solutions of 3-triethoxysilylpropyl-5,5-dimethylhydantoin, prepared as described in Example 1, and charged with chlorine as described in Example 11. Challenge inocula for the detection of activity versus bacterial spores were prepared from suspensions of spores of Bacillus subtilis. Recovery of viable organisms from challenged surfaces was done on TSA plates, and enumeration was accomplished by the plate dilution method.

[4] = tested on: Escherichia coli (ATCC 2666); assay: Challenge of treated cotton swatches, modified AATCC Method 100; assay type: cell-based; conditions: contact time interval 60-120 minutes
Experimental: (§1) Treated cotton swatches were challenged with S. aureus (ATCC 6538) and Escherichia coli (ATCC 2666) at a concentration of between 10^8 and 10^9 CFU/mL in pH 7 phosphate buffer solution using a modified version of AATCC Method 100. The swatches were quenched with 0.02 N sodium thiosulfate solution at contact times of 10, 30, 60, and 120 min. Serial dilutions of the solutions contacting the swatches were plated on nutrient agar, incubated for 48 hours at 37° C., and plate counts were made to determine the presence of viable bacteria. […] The control sample (cotton soaked in 10% bleach, rinsed, and dried) gave only a 0.4 log reduction at 30 minutes. […] The control sample (cotton soaked in 10% bleach, rinsed, and dried) gave a 0 log reduction at 120 minutes.

[5] = tested on: S. aureus (ATCC 6538); assay: as above; assay type: cell-based; conditions: coated chlorinated cotton swatches, contact time interval 10-30 minutes, pH 7 phosphate buffer
Experimental: as §1

SMILES: CCO[Si](CCCN1C(=O)NC(C)(C)C1=O)(OCC)OCC [3-triethoxysilylpropyl-5,5-dimethylhydantoin]
- average chlorine loading ([1]; cotton not treated in presence of KSCN, after 50 days in plastic bags at ambient temperature): 0.540%
- average chlorine loading ([1]; cotton not treated in presence of KSCN, start of dry storage): 0.620%
- average chlorine loading ([1]; cotton treated in presence of KSCN, after 50 days in plastic bags at ambient temperature): 0.680%
- average chlorine loading ([1]; cotton treated in presence of KSCN, start of dry storage): 0.776%
- chlorine on hard surface ([2]; PVC (Example 12)): 4.1 μg per cm^2
- average initial chlorine loading before washing ([2]; cotton, 8% treatment bath, cured 130° C. 20 min, 5% CLOROX 45 minutes): 0.61%
- average chlorine loading on the swatches ([2]; cotton, KSCN in treatment bath): 0.61±0.14%
- chlorine content ([2]; cotton): approximately 4000 ppm Cl^+
- average chlorine loading on the swatches ([2]; cotton, without KSCN): 0.49±0.07%
- chlorine bound to hard surface ([2]; marble tile): 6.9 μg Cl^+ per square cm
- chlorine on hard surface ([2]; marble tiles (Example 12)): 6.9 μg per cm^2
- chlorine bound to hard surface ([2]; porcelain tile): 3.3 μg Cl^+ per square cm
- chlorine concentration on soft surface ([2]; rayon fabrics (Example 12)): 4000 ppm
- chlorine content ([2]; sponge slabs): 1000-2000 ppm
- chlorine concentration on soft surface ([2]; synthetic fibers (Example 12)): approximately 800 ppm
- reduction in viable B. subtilis spore counts ([3]; cellulose sponge): > 5 logs
- reduction in viable B. subtilis spore counts ([3]; cotton and polyester): > 2 logs
- reduction in viable B. subtilis spore counts ([3]; hard surfaces (marble, vinyl, porcelain)): up to 4 logs
- log reduction of E. coli [4]: > 5.9 logs
- log reduction of S. aureus [5]: > 5.7 logs
